{
  "source": "patent US4885239A",
  "about": "“Rapid differentiation of bacteria using polyether antibiotics” (Eastman Kodak Company, priority 1986, dated 1989)",
  "key": {"[1]": {"tested_on": "E. coli", "test": "dye formation from RIND VII in presence of calimycin, E. coli", "type": "cell-based, Escherichia coli (ATCC 25922)", "set-up": "key: 0: no dye formation; +/-: faint dye formation; 1+: light dye formation; 2+: moderate dye formation; 3+: strong dye formation; 4+: very strong dye formation", "settings": "calimycin 10^-3 molar, calcium chloride", "procedure": "(§1) gram-negative bacteria Enterobacter cloacae (ATCC 23355), Escherichia coli (ATCC 25922), Proteus vulgaris (ATCC 13315), Klebsiella pneumoniae (ATCC 13883) and Pseudomonas aeruginosa (ATCC 27853), and gram-positive bacteria Staphylococcus aureus (ATCC 25923) and Streptococcus pyogenes (ATCC 19615), and brain heart infusion (BHI) broth from Difco Laboratories (Detroit, Mich.),\n(§2) Bacterial suspensions were prepared by growing the cells in BHI to stationary phase overnight at 37° C. P. aeruginosa was grown with agitation. […]\n(§3) TERGITOL 7 anionic surfactant was used to differentiate viable bacteria according to the prior art method. […] The amount of dye formed was then determined visually and graded as follows: 0 indicates no dye formation, +/- indicates faint dye formation, 1+ indicates light dye formation, 2+ indicates moderate dye formation, 3+ indicates strong dye formation, and 4+ indicates very strong dye formation.\n(§4) Calimycin, a polyether antibiotic, was similarly used with RIND VII in the differentiation of bacteria. Assays were performed as described above, except that 25 μl of 1 molar calcium chloride solution was added to each test solution and the P. aeruginosa response was measured in the presence of 10% yeast extract as the carbon source instead of glucose. […]"}, "[2]": {"tested_on": "K. pneumoniae", "test": "dye formation from RIND VII in presence of calimycin, K. pneumoniae", "type": "cell-based, Klebsiella pneumoniae (ATCC 13883)", "set-up": "key: 0: no dye formation; +/-: faint dye formation; 1+: light dye formation; 2+: moderate dye formation; 3+: strong dye formation; 4+: very strong dye formation", "settings": "calimycin 10^-3 molar, calcium chloride", "procedure": "as §1, §2, §3, §4"}, "[3]": {"tested_on": "E. coli (gram -)", "test": "change in optical density with tetrazolium salt MTT (Example 5), E. coli", "type": "cell-based, Escherichia coli (ATCC 25922)", "settings": "540 nm, 37° C., without antibiotic 0.643", "procedure": "as §1\n(§5) Bacterial suspensions were prepared by growing the cells in BHI to stationary phase overnight at 37° C. P. aeruginosa was grown with agitation. About 40 ml of overnight cultures were centrifuged, decanted and washed once with 0.05 molar potassium phosphate buffer or 0.05 molar N-2-hydroxyethylpiperazine-N'-2-ethanesulfonic acid (HEPES) buffer, pH 7.8, and resuspended in buffer.\n(§6) The reducible compound solution was prepared with 3-(4,5-dimethyl-2-thiazolyl)-2,5-diphenyl-2H-tetrazolium bromide (MTT) (200 μl of 5 mg/ml methanol), 200 μl glucose solution (10% in water), 200 μl trimethyl-1,4-benzoquinone ETA (1.5 mg/ml methanol) and 12 ml of HEPES buffer (0.05 molar, pH 7.8).\n(§7) Test solutions were prepared with the following: 50 μl HEPES buffer, 50 μl polyether antibiotic A23187 (free acid, 0.01 molar in methanol), 10 μl calcium chloride (1 molar) (serial dilutions of buffer and antibiotic were performed to obtain various antibiotic concentrations), 50 μl of the appropriate cell suspension, E. coli (about 10^8 cells/ml) or S. aureus (about 10^8 cells/ml), and 200 μl of the MTT solution. Control solutions were prepared as described in previous Examples.\n(§8) Optical density measurements were obtained at 540 nm using a standard spectrophotometer and the change in optical density (ΔOD) was determined after 30 minutes at 37° C. The resulting data are shown in Table VII below for several concentrations of antibiotic. It is clear from the data that the composition of this example was useful for differentiating bacteria."}, "[4]": {"tested_on": "S. aureus", "test": "dye formation from RIND VII in presence of calimycin, S. aureus", "type": "cell-based, Staphylococcus aureus (ATCC 25923)", "set-up": "key: 0: no dye formation; +/-: faint dye formation; 1+: light dye formation; 2+: moderate dye formation; 3+: strong dye formation; 4+: very strong dye formation", "settings": "calimycin 10^-3 molar, calcium chloride", "procedure": "as §1, §2, §3, §4"}, "[5]": {"tested_on": "P. vulgaris", "test": "dye formation from RIND VII in presence of calimycin, P. vulgaris", "type": "cell-based, Proteus vulgaris (ATCC 13315)", "set-up": "key: 0: no dye formation; +/-: faint dye formation; 1+: light dye formation; 2+: moderate dye formation; 3+: strong dye formation; 4+: very strong dye formation", "settings": "calimycin 10^-3 molar, calcium chloride", "procedure": "as §1, §2, §3, §4"}, "[6]": {"tested_on": "P. aeruginosa", "test": "dye formation from RIND VII in presence of calimycin, P. aeruginosa", "type": "cell-based, Pseudomonas aeruginosa (ATCC 27853)", "set-up": "key: 0: no dye formation; +/-: faint dye formation; 1+: light dye formation; 2+: moderate dye formation; 3+: strong dye formation; 4+: very strong dye formation", "settings": "calimycin 10^-3 molar, calcium chloride, 10% yeast extract instead of glucose", "procedure": "as §1, §2, §3, §4"}, "[7]": {"tested_on": "S. aureus (gram +)", "test": "change in optical density with tetrazolium salt MTT (Example 5), S. aureus", "type": "cell-based, Staphylococcus aureus (ATCC 25923)", "settings": "540 nm, 37° C., without antibiotic 0.505", "procedure": "as §1, §5, §6, §7, §8"}},
  "data": [
    {"smiles": "CNc1ccc2oc(C[C@H]3O[C@@]4(CC[C@H]3C)O[C@H]([C@H](C)C(=O)c3ccc[nH]3)[C@H](C)C[C@H]4C)nc2c1C(=O)O", "note": "[calimycin, Calimycin]", "values": [
      {"measurement": "dye formation", "setting": "[1]; 15 Minutes", "result": "3+"},
      {"measurement": "dye formation", "setting": "[1]; 30 Minutes", "result": "4+"},
      {"measurement": "dye formation", "setting": "[2]; 15 Minutes", "result": "4+"},
      {"measurement": "dye formation", "setting": "[2]; 30 Minutes", "result": "4+"},
      {"measurement": "Δ OD after 30 Min.", "setting": "[3]; antibiotic 1 × 10^-4 molar", "result": 0.503},
      {"measurement": "Δ OD after 30 Min.", "setting": "[3]; antibiotic 2 × 10^-4 molar", "result": 0.529},
      {"measurement": "Δ OD after 30 Min.", "setting": "[3]; antibiotic 4 × 10^-4 molar", "result": 0.512},
      {"measurement": "Δ OD after 30 Min.", "setting": "[3]; antibiotic 8 × 10^-4 molar", "result": 0.413},
      {"measurement": "dye formation", "setting": "[4]; 15 Minutes", "result": 0},
      {"measurement": "dye formation", "setting": "[4]; 30 Minutes", "result": 0},
      {"measurement": "dye formation", "setting": "[5]; 15 Minutes", "result": "4+"},
      {"measurement": "dye formation", "setting": "[5]; 30 Minutes", "result": "4+"},
      {"measurement": "dye formation", "setting": "[6]; 15 Minutes", "result": "2+"},
      {"measurement": "dye formation", "setting": "[6]; 30 Minutes", "result": "4+"},
      {"measurement": "Δ OD after 30 Min.", "setting": "[7]; antibiotic 1 × 10^-4 molar", "result": 0.089},
      {"measurement": "Δ OD after 30 Min.", "setting": "[7]; antibiotic 2 × 10^-4 molar", "result": 0.096},
      {"measurement": "Δ OD after 30 Min.", "setting": "[7]; antibiotic 4 × 10^-4 molar", "result": 0.065},
      {"measurement": "Δ OD after 30 Min.", "setting": "[7]; antibiotic 8 × 10^-4 molar", "result": 0.028}
    ]}
  ]
}
